Measurements: PubChem BioAssay (NCI)
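Where inhibition never reached the appropriate level, the endpoint shown equals the highest concentration tested. Otherwise, values were interpolated linearly from a five-concentration, 48-hour dose response in 96-well plates. TGI denotes the concentration required for complete inhibition of growth.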

Key:
Test in all cases: inhibition of tumour cell growth, NCI panel, 48 h
IGROV1 ovarian = tested on: IGROV1 ovarian
SR leukemia = tested on: SR leukemia
HT29 colon = tested on: HT29 colon
OVCAR-4 ovarian = tested on: OVCAR-4 ovarian
SN12C renal = tested on: SN12C renal
HOP-92 NSCLC = tested on: HOP-92 NSCLC
PC-3 prostate = tested on: PC-3 prostate
NCI-H23 lung = tested on: NCI-H23 lung
SK-MEL-2 melanoma = tested on: SK-MEL-2 melanoma
EKVX NSCLC = tested on: EKVX NSCLC
MDA-N = tested on: MDA-N
LOX IMVI melanoma = tested on: LOX IMVI melanoma
MCF7 breast = tested on: MCF7 breast
OVCAR-8 ovarian = tested on: OVCAR-8 ovarian
MDA-MB-435 = tested on: MDA-MB-435
DU-145 prostate = tested on: DU-145 prostate
T-47D breast = tested on: T-47D breast
HCT-15 colon = tested on: HCT-15 colon
K-562 leukemia = tested on: K-562 leukemia
ACHN renal = tested on: ACHN renal
HCT-116 colon = tested on: HCT-116 colon
KM12 colon = tested on: KM12 colon
OVCAR-5 ovarian = tested on: OVCAR-5 ovarian
CAKI-1 renal = tested on: CAKI-1 renal
NCI-H460 lung = tested on: NCI-H460 lung
OVCAR-3 ovarian = tested on: OVCAR-3 ovarian
HS 578T breast = tested on: HS 578T breast
RPMI-8226 leukemia = tested on: RPMI-8226 leukemia
NCI/ADR-RES ovarian = tested on: NCI/ADR-RES ovarian
NCI-H226 lung = tested on: NCI-H226 lung
786-0 renal = tested on: 786-0 renal
UO-31 renal = tested on: UO-31 renal
HOP-62 NSCLC = tested on: HOP-62 NSCLC
BT-549 breast = tested on: BT-549 breast
TK-10 renal = tested on: TK-10 renal
U251 CNS = tested on: U251 CNS
SW-620 colon = tested on: SW-620 colon
CCRF-CEM leukemia = tested on: CCRF-CEM leukemia
COLO 205 colon = tested on: COLO 205 colon
UACC-257 melanoma = tested on: UACC-257 melanoma
SF-539 CNS = tested on: SF-539 CNS
MDA-MB-231 breast = tested on: MDA-MB-231 breast
A549 NSCLC = tested on: A549 NSCLC
NCI-H522 lung = tested on: NCI-H522 lung
SF-295 CNS = tested on: SF-295 CNS
MALME-3M melanoma = tested on: MALME-3M melanoma
A498 renal = tested on: A498 renal
SK-OV-3 ovarian = tested on: SK-OV-3 ovarian
HCC-2998 colon = tested on: HCC-2998 colon
SK-MEL-5 melanoma = tested on: SK-MEL-5 melanoma
MOLT-4 leukemia = tested on: MOLT-4 leukemia
UACC-62 melanoma = tested on: UACC-62 melanoma
SK-MEL-28 melanoma = tested on: SK-MEL-28 melanoma
SNB-19 CNS = tested on: SNB-19 CNS
M14 melanoma = tested on: M14 melanoma
RXF 393 renal = tested on: RXF 393 renal
SF-268 CNS = tested on: SF-268 CNS
SNB-75 CNS = tested on: SNB-75 CNS

COc1c(-c2ccc(O)c(O)c2)oc2c(O)c(O)cc(O)c2c1=O
TGI (IGROV1 ovarian): 70.7 µM | TGI (SR leukemia): 50.8 µM | TGI (HT29 colon): 39.8 µM | TGI (OVCAR-4 ovarian): > 100 µM | TGI (SN12C renal): 31 µM | TGI (HOP-92 NSCLC): > 100 µM | TGI (PC-3 prostate): > 100 µM | TGI (NCI-H23 lung): > 100 µM | TGI (SK-MEL-2 melanoma): > 100 µM | TGI (EKVX NSCLC): > 100 µM | TGI (MDA-N): > 100 µM | TGI (LOX IMVI melanoma): 29.4 µM | TGI (MCF7 breast): 76.1 µM | TGI (OVCAR-8 ovarian): > 100 µM | TGI (MDA-MB-435): > 100 µM | TGI (DU-145 prostate): > 100 µM | TGI (T-47D breast): > 100 µM | TGI (HCT-15 colon): > 100 µM | TGI (K-562 leukemia): 46.4 µM | TGI (ACHN renal): > 100 µM | TGI (HCT-116 colon): > 100 µM | TGI (KM12 colon): > 100 µM | TGI (OVCAR-5 ovarian): > 100 µM | TGI (CAKI-1 renal): > 100 µM | TGI (NCI-H460 lung): > 100 µM | TGI (OVCAR-3 ovarian): > 100 µM | TGI (HS 578T breast): > 100 µM | TGI (RPMI-8226 leukemia): > 100 µM | TGI (NCI/ADR-RES ovarian): > 100 µM | TGI (NCI-H226 lung): > 100 µM | TGI (786-0 renal): > 100 µM | TGI (UO-31 renal): > 100 µM | TGI (HOP-62 NSCLC): 67.4 µM | TGI (BT-549 breast): > 100 µM | TGI (TK-10 renal): > 100 µM | TGI (U251 CNS): > 100 µM | TGI (SW-620 colon): 43.9 µM | TGI (CCRF-CEM leukemia): 97.7 µM | TGI (COLO 205 colon): > 100 µM | TGI (UACC-257 melanoma): > 100 µM | TGI (SF-539 CNS): > 100 µM | TGI (MDA-MB-231 breast): > 100 µM | TGI (A549 NSCLC): > 100 µM | TGI (NCI-H522 lung): > 100 µM | TGI (SF-295 CNS): > 100 µM | TGI (MALME-3M melanoma): > 100 µM | TGI (A498 renal): > 100 µM | TGI (SK-OV-3 ovarian): > 100 µM | TGI (HCC-2998 colon): > 100 µM | TGI (SK-MEL-5 melanoma): > 100 µM | TGI (MOLT-4 leukemia): 73.8 µM | TGI (UACC-62 melanoma): > 100 µM | TGI (SK-MEL-28 melanoma): > 100 µM | TGI (SNB-19 CNS): > 100 µM

COc1ccccc1N=N/C(=N\NC(=O)c1ccc(C)cc1)c1ccc(N(CCC#N)CCC#N)cc1C
TGI (IGROV1 ovarian): > 100 µM | TGI (SR leukemia): > 100 µM | TGI (HT29 colon): > 100 µM | TGI (OVCAR-4 ovarian): > 100 µM | TGI (SN12C renal): > 100 µM | TGI (HOP-92 NSCLC): > 100 µM | TGI (PC-3 prostate): > 100 µM | TGI (NCI-H23 lung): 94.4 µM | TGI (SK-MEL-2 melanoma): > 100 µM | TGI (M14 melanoma): > 100 µM | TGI (EKVX NSCLC): > 100 µM | TGI (RXF 393 renal): > 100 µM | TGI (MDA-N): > 100 µM | TGI (LOX IMVI melanoma): > 100 µM | TGI (MCF7 breast): > 100 µM | TGI (OVCAR-8 ovarian): > 100 µM | TGI (MDA-MB-435): > 100 µM | TGI (DU-145 prostate): > 100 µM | TGI (T-47D breast): > 100 µM | TGI (HCT-15 colon): > 100 µM | TGI (K-562 leukemia): > 100 µM | TGI (ACHN renal): > 100 µM | TGI (HCT-116 colon): > 100 µM | TGI (KM12 colon): > 100 µM | TGI (OVCAR-5 ovarian): > 100 µM | TGI (CAKI-1 renal): > 100 µM | TGI (NCI-H460 lung): > 100 µM | TGI (OVCAR-3 ovarian): 61.9 µM | TGI (HS 578T breast): > 100 µM | TGI (RPMI-8226 leukemia): > 100 µM | TGI (NCI/ADR-RES ovarian): > 100 µM | TGI (NCI-H226 lung): 28.5 µM | TGI (786-0 renal): > 100 µM | TGI (UO-31 renal): > 100 µM | TGI (HOP-62 NSCLC): > 100 µM | TGI (BT-549 breast): > 100 µM | TGI (TK-10 renal): > 100 µM | TGI (U251 CNS): > 100 µM | TGI (SW-620 colon): > 100 µM | TGI (CCRF-CEM leukemia): > 100 µM | TGI (SF-268 CNS): > 100 µM | TGI (COLO 205 colon): 37.3 µM | TGI (UACC-257 melanoma): > 100 µM | TGI (SF-539 CNS): > 100 µM | TGI (MDA-MB-231 breast): > 100 µM | TGI (SNB-75 CNS): > 100 µM | TGI (A549 NSCLC): > 100 µM | TGI (SF-295 CNS): > 100 µM | TGI (MALME-3M melanoma): 77.4 µM | TGI (A498 renal): > 100 µM | TGI (SK-OV-3 ovarian): > 100 µM | TGI (HCC-2998 colon): > 100 µM | TGI (SK-MEL-5 melanoma): 53.6 µM | TGI (MOLT-4 leukemia): > 100 µM | TGI (SK-MEL-28 melanoma): > 100 µM | TGI (SNB-19 CNS): > 100 µM
